Patent US20130102595A1 (Curis, Inc., priority 2011, published 2013)

Columns and labels:
[1] = test system: HDACs (HeLa cell nuclear extracts); assay: HDAC enzymatic activity, Biomol Color de Lys system; format: biochemical; conditions: 1 hour, 25° C.
Description: (E) an In Vitro Assay which Determines the Ability of a Test Compound to Inhibit HDAC Enzymatic Activity.
HDAC inhibitory activity was assessed using the Biomol Color de Lys system (AK-500, Biomol, Plymouth Meeting, Pa.). Briefly, HeLa cell nuclear extracts were used as a source of HDACs. Different concentrations of test compounds were serially diluted in dimethylsulphoxide (DMSO) and added to HeLa cell nuclear extracts in the presence of a colorimetric artificial substrate. Final assay condition contained 50 mM Tris/Cl, pH 8.0, 137 mM NaCl, 2.7 mM KCl and 1 mM MgCl2. Reactions were carried in room temperature (25° C.) for 1 hour before addition of developer for termination. Relative enzyme activity was measured in the WALLAC Victor II 1420 microplate reader as fluorescence intensity (excitation: 350-380 nm; emission: 440-460 nm). Data were analyzed using GraphPad Prism (v4.0a) with a sigmoidal dose response curve fitting for IC50 calculation.

PI3Kα (p110α/p85α) = biological target: T1, PI3Kα (p110α/p85α) (Homo sapiens, UniProt P42336); assay: PI3Kα ADP-Glo assay; format: biochemical; conditions: 20 μM PIP2, 10 μM ATP, 30 minutes
T1 construct: GST (N); made in house; host or cells: Baculovirus-infected Sf9 cells
Description: (A) an In Vitro Assay which Determines the Ability of a Test Compound to Inhibit PI3Kα.
Activity of PI3Kα was measured using ADP-Glo assay from Promega. PI3Kα, a complex of N-terminal GST-tagged recombinant full-length human p110α (GenBank, Accession No. U79143) and N-terminal His tagged recombinant full length human p85a (GenBank Accession No. XM—043865) were co-expressed in a Baculovirus infected Sf9 cell expression system. The ADP-Glo assay was performed to measure the amount of ADP generated from ATP hydrolysis coupled with PIP2 phosphorylation by the purified recombinant PI3Kα (p110α/p85α). PI3Kα was incubated with 20 μM PIP2 substrate in the reaction buffer (50 mM HEPES, pH 7.4, 150 mM NaCl, 5 mM MgCl2, 1 mM DTT, 3 uM Naorthovanadate, 10 μM ATP and 0.5% DMSO) for 30 minutes at room temperature. The ADP generated was then detected by ADP-Glo assay from Promega, a luminescent ADP detection assay. The ADP-Glo assay is performed in two steps; first, after the kinase reaction, ADP-Glo Reagent is added to terminate the kinase reaction and deplete the remaining ATP. Second, the Kinase Detection Reagent is added to simultaneously convert ADP to ATP and allow the newly synthesized ATP to be measured using a luciferase/luciferin reaction.

T1 sequence (P42336 whole entry): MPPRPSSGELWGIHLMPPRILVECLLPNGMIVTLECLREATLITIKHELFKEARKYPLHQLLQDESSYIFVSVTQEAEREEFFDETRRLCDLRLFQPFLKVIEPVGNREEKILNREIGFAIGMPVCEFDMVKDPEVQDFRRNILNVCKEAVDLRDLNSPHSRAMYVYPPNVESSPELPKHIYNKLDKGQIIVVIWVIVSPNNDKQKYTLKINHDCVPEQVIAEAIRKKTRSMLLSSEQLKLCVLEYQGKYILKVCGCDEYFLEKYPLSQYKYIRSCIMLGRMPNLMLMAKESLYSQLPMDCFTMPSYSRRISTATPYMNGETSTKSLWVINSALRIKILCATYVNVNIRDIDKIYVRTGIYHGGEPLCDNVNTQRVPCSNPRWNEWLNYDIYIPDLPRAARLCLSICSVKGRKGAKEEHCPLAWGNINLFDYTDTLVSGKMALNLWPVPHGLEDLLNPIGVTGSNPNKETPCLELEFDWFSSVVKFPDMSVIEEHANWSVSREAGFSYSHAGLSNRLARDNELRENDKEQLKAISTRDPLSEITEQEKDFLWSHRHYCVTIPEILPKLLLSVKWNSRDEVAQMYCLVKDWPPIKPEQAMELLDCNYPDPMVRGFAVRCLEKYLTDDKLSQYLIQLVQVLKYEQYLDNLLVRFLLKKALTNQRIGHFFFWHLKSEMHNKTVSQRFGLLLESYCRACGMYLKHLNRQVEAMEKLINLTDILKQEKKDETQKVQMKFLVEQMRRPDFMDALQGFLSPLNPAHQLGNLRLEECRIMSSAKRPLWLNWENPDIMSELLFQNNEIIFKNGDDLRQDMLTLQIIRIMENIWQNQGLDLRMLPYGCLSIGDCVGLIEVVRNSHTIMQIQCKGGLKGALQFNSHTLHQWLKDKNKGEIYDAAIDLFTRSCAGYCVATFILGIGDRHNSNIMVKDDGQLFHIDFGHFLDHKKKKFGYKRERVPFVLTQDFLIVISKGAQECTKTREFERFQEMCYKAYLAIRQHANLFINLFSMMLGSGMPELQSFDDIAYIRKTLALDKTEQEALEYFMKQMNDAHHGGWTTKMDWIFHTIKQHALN
T1 sequence (P27986 whole entry partner): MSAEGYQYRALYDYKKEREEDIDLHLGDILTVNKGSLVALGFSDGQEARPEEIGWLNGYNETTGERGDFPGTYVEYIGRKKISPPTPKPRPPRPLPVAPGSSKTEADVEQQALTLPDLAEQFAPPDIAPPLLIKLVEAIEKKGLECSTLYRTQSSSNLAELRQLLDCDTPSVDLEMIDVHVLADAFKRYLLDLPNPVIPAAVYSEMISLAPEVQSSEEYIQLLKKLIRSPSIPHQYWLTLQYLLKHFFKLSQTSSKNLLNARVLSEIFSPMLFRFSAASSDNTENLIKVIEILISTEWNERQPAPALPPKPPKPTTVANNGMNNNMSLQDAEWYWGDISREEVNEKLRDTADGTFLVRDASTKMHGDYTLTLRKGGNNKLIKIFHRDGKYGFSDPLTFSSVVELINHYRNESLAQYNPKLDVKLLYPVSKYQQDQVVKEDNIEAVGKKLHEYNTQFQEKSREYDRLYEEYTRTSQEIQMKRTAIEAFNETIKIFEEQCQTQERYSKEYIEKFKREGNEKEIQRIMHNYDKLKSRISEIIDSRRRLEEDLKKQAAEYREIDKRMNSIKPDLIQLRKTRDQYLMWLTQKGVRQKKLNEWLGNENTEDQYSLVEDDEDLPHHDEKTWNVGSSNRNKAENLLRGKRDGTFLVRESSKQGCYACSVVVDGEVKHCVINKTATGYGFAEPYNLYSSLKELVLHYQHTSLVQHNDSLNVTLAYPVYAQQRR

Compound	IC50 [1]	IC50 (PI3Kα (p110α/p85α))
O=C(CCCCNc1cc2nc(-c3cc(O)ccc3F)nc(N3CCOCC3)c2s1)NO [Compound 231]	< 100 nM	< 100 nM
CN(Cc1cc2nc(-c3cccc4[nH]c(=S)[nH]c34)nc(N3CCOCC3)c2s1)c1ncc(C(=O)NO)cn1 [Compound 315]	< 100 nM	< 100 nM
CN(Cc1cc2nc(-c3ccc(O)nc3)nc(N3CCOCC3)c2s1)c1ncc(C(=O)NO)cn1 [Compound 254]	< 100 nM	100 to 1000 nM
CC(C)(Nc1ncc(C(=O)NO)cn1)c1cc2nc(-c3ccc(N)cc3)nc(N3CCOCC3)c2s1 [Compound 269, 2-(2-(2-(4-Aminophenyl)-4-morpholinothieno[3,2-d]pyrimidin-6-yl)propan-2-ylamino)-N-hydroxypyrimidine-5-carboxamide]	< 100 nM	1000 to 10000 nM
COc1ccc(-c2nc(N3CCOCC3)c3sc(C(C)N(C)c4ncc(C(=O)NO)cn4)cc3n2)cn1 (stereo not drawn) [Compound 247, N-hydroxy-2-((1-(2-(6-methoxypyridin-3-yl)-4-morpholino-thieno[3,2-d]pyrimidin-6-yl)ethyl)(methyl)amino)pyrimidine-5-carboxamide]	< 100 nM	< 100 nM
NC(=O)CN(Cc1cc2nc(-c3cccc4[nH]ncc34)nc(N3CCOCC3)c2s1)c1ncc(C(=O)NO)cn1 [Compound 97]	< 100 nM	< 100 nM
CNc1ccc(-c2nc(N3CCOCC3)c3sc(CN(CCO)c4ncc(C(=O)NO)cn4)cc3n2)cn1 [Compound 245]	< 100 nM	< 100 nM
O=C(CCCCNc1cc2nc(-c3cccc4[nH]ncc34)nc(N3CCOCC3)c2s1)NO [Compound 18]	< 100 nM	100 to 1000 nM
O=C(CCCCCNc1cc2nc(-c3cccc4[nH]ncc34)nc(N3CCOCC3)c2s1)NO [Compound 19]	< 100 nM	100 to 1000 nM
Cn1cc(CNc2cc3nc(-c4cccc5[nH]ncc45)nc(N4CCOCC4)c3s2)c2cc(C(=O)NO)ccc21 [Compound 106]	1000 to 10000 nM	< 100 nM
Cc1c(CN(C)c2ncc(C(=O)NO)cn2)sc2c(N3CCOCC3)nc(-c3cccc4[nH]ncc34)nc12 [Compound 68]	< 100 nM	100 to 1000 nM
Nc1ccc(-c2nc(N3CCOCC3)c3sc(CNCc4ccc(C(=O)NO)cc4)cc3n2)cc1 [Compound 209]	< 100 nM	> 10000 nM
O=C(NO)c1cnc(N2CCN(S(=O)(=O)c3cc4nc(-c5cccc6[nH]ncc56)nc(N5CCOCC5)c4s3)CC2)nc1 [Compound 51]	100 to 1000 nM	< 100 nM
COc1ncc(-c2nc(N3CCOCC3)c3sc(NS(=O)(=O)c4ccc(/C=C/C(=O)NO)cc4)cc3n2)cn1 [Compound 219]	< 100 nM	< 100 nM
CN(Cc1cc2nc(-c3cccc(S(=O)(=O)CCO)c3)nc(N3CCOCC3)c2s1)c1ncc(C(=O)NO)cn1 [Compound 291]	< 100 nM	> 10000 nM
Nc1ccc(-c2nc(N3CCOCC3)c3sc(CNCc4ccc(/C=C/C(=O)NO)cc4)cc3n2)cc1 [Compound 210]	100 to 1000 nM	100 to 1000 nM
O=C(CCCCCCNc1cc2nc(-c3cccc4[nH]ncc34)nc(N3CCOCC3)c2s1)NO [Compound 20]	< 100 nM	100 to 1000 nM
CCN(Cc1cc2nc(-c3ccc(N)cc3)nc(N3CCOCC3)c2s1)c1ncc(C(=O)NO)cn1 [Compound 215]	< 100 nM	100 to 1000 nM
CN(Cc1cc2nc(-c3cccc4[nH]ncc34)nc(N3CCOCC3)c2s1)c1ncc(/C=C/C(=O)NO)cn1 [Compound 75]	100 to 1000 nM	< 100 nM
O=C(NO)c1ccc2c(ccn2Cc2cc3nc(-c4cccc5[nH]ncc45)nc(N4CCOCC4)c3s2)c1 [Compound 105]	100 to 1000 nM	> 10000 nM
CCN(CC)c1nc(-c2cccc3[nH]ncc23)nc2cc(CN(C)c3ncc(C(=O)NO)cn3)sc12 [Compound 158]	< 100 nM	> 10000 nM
CN(Cc1cc2nc(-c3cccc4[nH]ncc34)nc(N3CCCCC3)c2s1)c1ncc(C(=O)NO)cn1 [Compound 67]	< 100 nM	100 to 1000 nM
CCN(Cc1cc2nc(-c3cccc4[nH]ncc34)nc(N3CCOCC3)c2s1)c1ncc(C(=O)NO)cn1 [Compound 92]	< 100 nM	< 100 nM
CNc1ccc(-c2nc(N3CCOCC3)c3sc(NS(=O)(=O)c4cccc(/C=C/C(=O)NO)c4)cc3n2)cn1 [Compound 224]	< 100 nM	< 100 nM

Compound	IC50 [1]	IC50 (PI3Kα (p110α/p85α))
Nc1ccc(-c2nc(N3CCOCC3)c3sc(CN4CCN(c5ncc(C(=O)NO)cn5)CC4)cc3n2)cc1 [Compound 207]	< 100 nM	100 to 1000 nM
CNc1ccc(-c2nc(N3CCOCC3)c3sc(CN(C)Cc4nc5cc(/C=C/C(=O)NO)ccc5n4C)cc3n2)cn1 [Compound 329]	100 to 1000 nM	< 100 nM
C#CCCN(Cc1cc2nc(-c3cccc4[nH]ncc34)nc(N3CCOCC3)c2s1)c1ncc(C(=O)NO)cn1 [Compound 98]	< 100 nM	< 100 nM
CN(C)CCN(Cc1cc2nc(-c3cccc4[nH]ncc34)nc(N3CCOCC3)c2s1)c1ncc(C(=O)NO)cn1 [Compound 95]	100 to 1000 nM	< 100 nM
CCCc1nc2cc(/C=C/C(=O)NO)ccc2n1CCNCc1cc2nc(-c3ccc(N)cc3)nc(N3CCOCC3)c2s1 [Compound 325]	100 to 1000 nM	1000 to 10000 nM
COc1ccc(-c2nc(N3CCOCC3)c3sc(NCCCCC(=O)NO)cc3n2)cn1 [Compound 230]	< 100 nM	< 100 nM
O=C(/C=C/c1ccc(CNCc2cc3nc(-c4cccc5[nH]ncc45)nc(N4CCOCC4)c3s2)cc1)NO [Compound 204]	100 to 1000 nM	100 to 1000 nM
CC(=O)c1cccc(-c2nc(N3CCOCC3)c3sc(CN(C)c4ncc(C(=O)NO)cn4)cc3n2)c1 [Compound 300]	< 100 nM	100 to 1000 nM
Nc1ccc(-c2nc(N3CCOCC3)c3sc(CN(CCO)c4ncc(C(=O)NO)cn4)cc3n2)cn1 [Compound 235]	< 100 nM	< 100 nM
CNc1ccc(-c2nc(N3CCOCC3)c3sc(CNCc4nc5cc(/C=C/C(=O)NO)ccc5n4C)cc3n2)cn1 [Compound 328]	100 to 1000 nM	< 100 nM
CN(c1ncc(C(=O)NO)cn1)c1cc2nc(-c3ccc(N)cc3)nc(N3CCOCC3)c2s1 [Compound 272]	< 100 nM	< 100 nM
CN(Cc1cc2nc(-c3cccc(S(N)(=O)=O)c3)nc(N3CCOCC3)c2s1)c1ncc(C(=O)NO)cn1 [Compound 305]	< 100 nM	100 to 1000 nM
CN(Cc1cc2nc(-c3cccc4[nH]ncc34)nc(N3CCOCC3)c2s1)c1ccc(C(=O)NO)cc1 [Compound 79]	< 100 nM	< 100 nM
COc1ccc(Nc2nc(-c3cccc4[nH]ncc34)nc3cc(CN(C)c4ncc(C(=O)NO)cn4)sc23)cc1 [Compound 165]	< 100 nM	> 10000 nM
CN(Cc1cc2nc(-c3cccc4[nH]ncc34)nc(N3CCNCC3)c2s1)c1ncc(C(=O)NO)cn1 [Compound 60]	< 100 nM	> 10000 nM
Nc1ccc(-c2nc(N3CCOCC3)c3sc(S(=O)(=O)NCC4CCN(c5ncc(C(=O)NO)cn5)CC4)cc3n2)cc1 [Compound 309]	100 to 1000 nM	100 to 1000 nM
CN(Cc1cc2nc(-c3cccc(C(=O)O)c3)nc(N3CCOCC3)c2s1)c1ncc(C(=O)NO)cn1 [Compound 303]	< 100 nM	100 to 1000 nM
CC(C)OC(=O)Nc1ccc(-c2nc(N3CCOCC3)c3sc(CN(C)c4ncc(C(=O)NO)cn4)cc3n2)cc1 [Compound 287]	< 100 nM	> 10000 nM
CN(Cc1cc2nc(-c3cccc4[nH]c(=O)sc34)nc(N3CCOCC3)c2s1)c1ncc(C(=O)NO)cn1 [Compound 317]	< 100 nM	< 100 nM
COc1ncc(-c2nc(N3CCOCC3)c3sc(NS(=O)(=O)c4cccc(/C=C/C(=O)NO)c4)cc3n2)cn1 [Compound 220]	< 100 nM	< 100 nM
O=C(NO)c1cnc(N2CCC(CNc3cc4nc(-c5cccc6[nH]ncc56)nc(N5CCOCC5)c4s3)CC2)nc1 [Compound 48]	< 100 nM	< 100 nM
CNc1ccc(-c2nc(N3CCOCC3)c3sc(N(C)c4ncc(C(=O)NO)cn4)cc3n2)cn1 [Compound 243]	100 to 1000 nM	< 100 nM
COc1cccc(Nc2nc(-c3cccc4[nH]ncc34)nc3cc(CN(C)c4ncc(C(=O)NO)cn4)sc23)c1 [Compound 166]	< 100 nM	> 10000 nM
COc1ncc(-c2nc(N3CCOCC3)c3sc(C(C)(C)N(C)c4ncc(C(=O)NO)cn4)cc3n2)cn1 [Compound 264]	< 100 nM	100 to 1000 nM
